Consider five compounds from patent publication US8618129B2, “Substituted 1-oxo-dihydroisoquinoline-3-carboxamides as KCNQ2/3 modulators” (Gruenenthal GmbH, priority 2010, dated 2013).

One assay has as its target T1, KCNQ2/3 channels (Homo sapiens, UniProt O43525+O43526).
T1 construct: expressed in transfected cells; host or cells: CHO-K1 cells, kept under selection antibiotics
The assay can be described thus: Fluorescence assay using a voltage sensitive dye (fluorimetry). Particulars: CHO-K1 cells expressing KCNQ2/3 channels; for Emax: agonistic efficacy relative to retigabine = 100%. The class given is cell-based. On the procedure:
Method I. Fluorescence Assay Using a Voltage Sensitive Dye
Human CHO-K1 cells expressing KCNQ2/3 channels are cultivated adherently at 37° C., 5% CO2 and 95% humidity in cell culture bottles (e.g. 80 cm^2 TC flasks, Nunc) with DMEM-high glucose (Sigma Aldrich, D7777) including 10% FCS (PAN Biotech, e.g. 3302-P270521) or alternatively MEM Alpha Medium (1×, liquid, Invitrogen, #22571), 10% fetal calf serum (FCS) (Invitrogen, #10270-106, heat-inactivated) and the necessary selection antibiotics.
Before being sown out for the measurements, the cells are washed with a 1× DPBS buffer without Ca^2+/Mg^2+ (e.g. Invitrogen, #14190-094) and detached from the bottom of the culture vessel by means of Accutase (PAA Laboratories, #L11-007) (incubation with Accutase for 15 min at 37° C.). The cell count then present is determined using a CASY™ cell counter (TCC model, Schärfe System) in order subsequently to apply, depending on the density optimization for the individual cell line, 20,000-30,000 cells/well/100 μl of the described nutrient medium to 96-well measuring plates of the Corning™ CellBIND™ type (Flat Clear Bottom Black Polystyrene Microplates, #3340). Incubation is then carried out for one hour at room temperature, without gassing or adjusting the humidity, followed by incubation for 24 hours at 37° C., 5% CO2 and 95% humidity.
The voltage-sensitive fluorescent dye from the Membrane Potential Assay Kit (Red™ Bulk format part R8123 for FLIPR, MDS Analytical Technologies™) is prepared by dissolving the contents of a vessel Membrane Potential Assay Kit Red Component A in 200 ml of extracellular buffer (ES buffer, 120 mM NaCl, 1 mM KCl, 10 mM HEPES, 2 mM CaCl2, 2 mM MgCl2, 10 mM glucose; pH 7.4). After removal of the nutrient medium, the cells are washed with 200 μl of ES buffer, then covered with a layer of 100 μl of the dye solution prepared above and incubated for 45 min at room temperature with the exclusion of light.
The fluorescence measurements are carried out with a BMG Labtech FLUOstar™, BMG Labtech NOVOstar™ or BMG Labtech POLARstar™ instrument (525 nm excitation, 560 nm emission, Bottom Read mode). After incubation of the dye, 50 μl of the test substances in the desired concentrations, or 50 μl of ES buffer for control purposes, are introduced into separate cavities of the measuring plate and incubated for 30 min at room temperature while being shielded from light. The fluorescence intensity of the dye is then measured for 5 min and the fluorescence value F1 of each well is thus determined at a given, constant time. 15 μl of a […] KCl solution ([…]) are then added to each well. The change in fluorescence is subsequently measured until all the relevant measured values have been obtained (mainly 5-30 min). At a given time after KCl application, a fluorescence value F2 is determined, in this case at the time of the fluorescence peak.
For calculation, the fluorescence intensity F2 is compared with the fluorescence intensity F1, and the agonistic activity of the target compound on the potassium channel is determined therefrom. F2 and F1 are calculated as follows: […]
A substance has an agonistic activity on the potassium channel when
[formula] is to be observed as the dosage of the target compound increases. Calculations of EC50 and IC50 values are carried out with the aid of ‘Prism v4.0’ software (GraphPad Software™).

Assay [1] relates to withdrawal reflex of the rat tail (tail flick). The assay can be described thus: Low-intensity tail flick test (rat). The class given is in vivo. Particulars: dose 10.00 mg/kg (in brackets in the cell). On the procedure: Method II. Low-Intensity Tail Flick Test (Rat)
In the low-intensity tail flick test, the determination of the antinociceptive effect of the compounds according to the invention towards an acute noxious thermal stimulus is carried out by measuring the withdrawal reflex of the rat tail (tail flick) in response to a radiant heat beam (analgesia meter; model 2011 of the company Rhema Labortechnik, Hofheim, Germany) according to the method described by D'Amour and Smith (J. Pharm. Exp. Ther. 72, 74 79 (1941). To this end, the rats were placed in a plexiglas restrainer, and a low-intensity radiant heat beam (48° C.) was focused onto the dorsal surface of the tail root. The stimulus intensity was adjusted to result in a mean pre-drug control withdrawal latency of about 7 s, thus also allowing a supraspinal modulation of the spinally mediated acute nociceptive reflex. […] Before administration of a compound according to the invention, the animals were pre-tested twice in the course of five minutes and the mean of these measurements was calculated as the pre-test mean. The antinociceptive effect was determined at 20, 40 and 60 min after peroral compound administration. The antinociceptive effect was calculated based on the increase in the tail withdrawal latency according to the following formula and is expressed as percentage of the maximum possible effect (MPE [%]): MPE=[(T1−T0)/(T2−T0)]*100 […]
In general terms: In hot-plate and tail-flick tests a longer latency is read as antinociception.

Structures are written as SMILES.

Consider `COCCn1c(C(=O)NCc2cccc(F)c2)c(C)c2ccc(C(F)(F)F)cc2c1=O` [Example 5, N-(3-fluorobenzyl)-2-(2-methoxyethyl)-4-methyl-1-oxo-7-(trifluoromethyl)-1,2-dihydroisoquinoline-3-carboxamide], for which, on KCNQ2/3 channels, the EC50 (in general, the concentration at which the effect is half-maximal) is 283 nM and the maximal response (Emax) – broadly, the size of the effect at its maximum, as opposed to the concentration needed – was 87%.

`Cc1c(C(=O)NCc2cccc(F)c2)n(C(C)C)c(=O)c2cc(C(F)(F)F)ccc12` [Example 4, N-(3-fluorobenzyl)-2-isopropyl-4-methyl-1-oxo-7-(trifluoromethyl)-1,2-dihydroisoquinoline-3-carboxamide]: at KCNQ2/3 channels, the EC50 was found to be 381 nM and the Emax stood at 144%.

Take `CCCn1c(C(=O)NCc2cccc(F)c2)c(C)c2ccc(C(F)(F)F)cc2c1=O` [Example 2, N-(3-fluorobenzyl)-4-methyl-1-oxo-2-propyl-7-(trifluoromethyl)-1,2-dihydroisoquinoline-3-carboxamide]: at KCNQ2/3 channels, it took 124 nM to reach a half-maximal effect (EC50) and the Emax worked out at 134%. Besides, the “Low intensity tail flick, rat, peroral, % MPE (dose [mg/kg])” value in assay [1] was 10 (10.00) % MPE.

On KCNQ2/3 channels, `Cc1c(C(=O)NCc2cccc(F)c2)n(C)c(=O)c2cc(C(F)(F)F)ccc12` [Example 1, N-(3-fluorobenzyl)-2,4-dimethyl-1-oxo-7-(trifluoromethyl)-1,2-dihydroisoquinoline-3-carboxamide] had an EC50 of 1950 nM and an Emax of 164%.

Turning to `CCn1c(C(=O)NCc2cccc(F)c2)c(C)c2ccc(C(F)(F)F)cc2c1=O` [Example 3, 2-ethyl-N-(3-fluorobenzyl)-4-methyl-1-oxo-7-(trifluoromethyl)-1,2-dihydroisoquinoline-3-carboxamide], at KCNQ2/3 channels, the response was half-maximal at 196 nM (EC50) and the Emax came to 103%.
